In the supplement of paper PMC10307832:

Tests used:
Assay in all cases: relative viability (nuclei count vs DMSO), 5 days (fraction); higher = more cells survive
Zosuquidar + Pemetrexed = compound: O[C@@H](COc1cccc2ncccc12)CN1CCN([C@@H]2c3ccccc3[C@@H]3[C@H](c4ccccc42)C3(F)F)CC1 [Zosuquidar] + Nc1nc2[nH]cc(CCc3ccc(C(=O)N[C@@H](CCC(=O)O)C(=O)O)cc3)c2c(=O)[nH]1 [Pemetrexed] (partner 0.2 µM)
Method in brief: (§1)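 Relative viability divides the nuclei count in treated wells by that in vehicle wells. Lung cancer cell lines were seeded in 1536-well plates, dosed by pin tool the next day, and fixed and stained after 5 days in one step with final 0.05% Triton X-100, 1% formaldehyde and 1 ug/ml Hoechst. Dosing was a single drug or a fixed anchor-drug dose plus five library-drug doses (not always all listed) in √10 steps, and values are medians of duplicate plates imaged at 4×.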

Kobe2602 + Luminespib = compound: C1=CC(=CC=C1NC(=S)NNC2=C(C=C(C=C2[N+](=O)[O-])C(F)(F)F)[N+](=O)[O-])F [Kobe2602] + CCNC(=O)c1noc(-c2cc(C(C)C)c(O)cc2O)c1-c1ccc(CN2CCOCC2)cc1 [Luminespib] (partner 0.01 µM)
Method in brief: as §1

[1] = compound: COc1cc2nccc(Oc3ccc(NC(=O)C4(C(=O)Nc5ccc(F)cc5)CC4)cc3)c2cc1OC [Cabozantinib] + Nc1nc2[nH]cc(CCc3ccc(C(=O)N[C@@H](CCC(=O)O)C(=O)O)cc3)c2c(=O)[nH]1 [Pemetrexed] (partner 0.2 µM)
Method in brief: as §1

Cabozantinib + Foretinib = compound: COc1cc2nccc(Oc3ccc(NC(=O)C4(C(=O)Nc5ccc(F)cc5)CC4)cc3)c2cc1OC [Cabozantinib] + COc1cc2c(Oc3ccc(NC(=O)C4(C(=O)Nc5ccc(F)cc5)CC4)cc3F)ccnc2cc1OCCCN1CCOCC1 [Foretinib] (partner 0.25 µM)
Method in brief: as §1

## UMC-11
Zosuquidar + Pemetrexed; first compound 0.01 µM
  relative viability: 0.739
Zosuquidar + Pemetrexed; first compound 0.03162 µM
  relative viability: 0.739
Zosuquidar + Pemetrexed; first compound 0.1 µM
  relative viability: 0.894
Zosuquidar + Pemetrexed; first compound 0.3162 µM
  relative viability: 0.858
Zosuquidar + Pemetrexed; first compound 1 µM
  relative viability: 0.86
Kobe2602 + Luminespib; first compound 0.2 µM
  relative viability: 1.04
Kobe2602 + Luminespib; first compound 0.6325 µM
  relative viability: 1.12
Kobe2602 + Luminespib; first compound 2 µM
  relative viability: 0.959
Kobe2602 + Luminespib; first compound 6.325 µM
  relative viability: 1.04
Kobe2602 + Luminespib; first compound 20 µM
  relative viability: 1.05
[1]; first compound 0.02 µM
  relative viability: 0.802
[1]; first compound 0.06325 µM
  relative viability: 0.879
[1]; first compound 0.2 µM
  relative viability: 0.782
[1]; first compound 0.6325 µM
  relative viability: 0.837
[1]; first compound 2 µM
  relative viability: 0.747
Cabozantinib + Foretinib; first compound 0.02 µM
  relative viability: 0.959
Cabozantinib + Foretinib; first compound 0.06325 µM
  relative viability: 1.21
Cabozantinib + Foretinib; first compound 0.2 µM
  relative viability: 1.01
Cabozantinib + Foretinib; first compound 0.6325 µM
  relative viability: 1.03
Cabozantinib + Foretinib; first compound 2 µM
  relative viability: 0.942
